Read-outs that look alike come from different tables or passages of the source.
What was measured:
[1] = system: weeds (ABUTH, AMATA, AMBEL, CHEAL, ERICA); assay: Postemergence herbicide evaluation, overall average % weed control across ABUTH, AMATA, AMBEL, CHEAL, ERICA; type: in vivo; settings: post-emergence, average over the five weeds, read-out: Overall Ave % Weed Control; for pest or weed control at 280 g/ha: 280 g ae/ha; for pest or weed control at 560 g/ha: 560 g ae/ha
[2] = Volatility of compounds measured by thermogravimetric analysis (TGA); type: physicochemical
[3] = system: Chenopodium album (CHEAL), common lambsquarters; assay: Postemergence herbicide evaluation, growth of Chenopodium album (CHEAL); type: in vivo; settings: Chenopodium album, post-emergence, percent reduction in plant size relative to untreated control, read-out: Ave. CHEAL; for pest or weed control at 280 g/ha: 280 g ae/ha; for pest or weed control at 560 g/ha: 560 g ae/ha
[4] = system: glyphosate resistant Conyza canadensis (L.) (ERICA), horseweed; assay: Postemergence herbicide evaluation, growth of Conyza canadensis (ERICA); type: in vivo; settings: Erigeron canadensis, post-emergence, percent reduction in plant size relative to untreated control, read-out: Ave. ERICA; for pest or weed control at 280 g/ha: 280 g ae/ha; for pest or weed control at 560 g/ha: 560 g ae/ha
[5] = system: Abutilon theophrasti (ABUTH), velvetleaf; assay: Postemergence herbicide evaluation, growth of Abutilon theophrasti (ABUTH); type: in vivo; settings: Abutilon theophrasti, post-emergence, percent reduction in plant size relative to untreated control, read-out: AVE. ABUTH; for pest or weed control at 280 g/ha: 280 g ae/ha; for pest or weed control at 560 g/ha: 560 g ae/ha
[6] = system: Ambrosia artemisiifolia (AMBEL), common ragweed; assay: Postemergence herbicide evaluation, growth of Ambrosia artemisiifolia (AMBEL); type: in vivo; settings: Ambrosia artemisiifolia, post-emergence, percent reduction in plant size relative to untreated control, read-out: AVE. AMBEL; for pest or weed control at 280 g/ha: 280 g ae/ha; for pest or weed control at 560 g/ha: 560 g ae/ha
[7] = system: Amaranthus rudis (AMATA), tall water hemp; assay: Postemergence herbicide evaluation, growth of Amaranthus rudis (AMATA); type: in vivo; settings: Amaranthus tuberculatus, post-emergence, percent reduction in plant size relative to untreated control, read-out: Ave. AMATA; for pest or weed control at 280 g/ha: 280 g ae/ha; for pest or weed control at 560 g/ha: 560 g ae/ha

Row | Compound | pest or weed control at 280 g/ha ([1]; 168 h, 7 DAA) | pest or weed control at 560 g/ha ([1]; 168 h, 7 DAA) | pest or weed control at 280 g/ha ([1]; 336 h, 14 DAA) | pest or weed control at 560 g/ha ([1]; 336 h, 14 DAA) | pest or weed control at 280 g/ha ([1]; 504 h, 21 DAA) | pest or weed control at 560 g/ha ([1]; 504 h, 21 DAA) | TGA Data (rate of weight loss, volatility) [2] | pest or weed control at 280 g/ha ([3]; 168 h, 7 DAA) | pest or weed control at 560 g/ha ([3]; 168 h, 7 DAA) | pest or weed control at 280 g/ha ([3]; 336 h, 14 DAA) | pest or weed control at 560 g/ha ([3]; 336 h, 14 DAA) | pest or weed control at 280 g/ha ([3]; 504 h, 21 DAA) | pest or weed control at 560 g/ha ([3]; 504 h, 21 DAA) | pest or weed control at 280 g/ha ([4]; 168 h, 7 DAA) | pest or weed control at 560 g/ha ([4]; 168 h, 7 DAA) | pest or weed control at 280 g/ha ([4]; 336 h, 14 DAA) | pest or weed control at 560 g/ha ([4]; 336 h, 14 DAA) | pest or weed control at 280 g/ha ([4]; 504 h, 21 DAA) | pest or weed control at 560 g/ha ([4]; 504 h, 21 DAA) | pest or weed control at 280 g/ha ([5]; 168 h, 7 DAA) | further results
1 | CCO/C(CC)=N\OC(=O)COc1ccc(Cl)cc1Cl [Compound A9, Ethyl N-2-(2,4-dichlorophenoxy)acetoxypropionimidate] | 72% | 75% | 82% | 85% | 85% | 89% | 0.5 µg/min | 70% | 65% | 83% | 68% | 88% | 75% | 70% | 70% | 91% | 84% | 99% | 97% | 80% | pest or weed control at 560 g/ha ([5]; 168 h, 7 DAA): 80%; pest or weed control at 280 g/ha ([5]; 336 h, 14 DAA): 80%; pest or weed control at 560 g/ha ([5]; 336 h, 14 DAA): 96%; pest or weed control at 280 g/ha ([5]; 504 h, 21 DAA): 89%; pest or weed control at 560 g/ha ([5]; 504 h, 21 DAA): 95%; pest or weed control at 280 g/ha ([6]; 168 h, 7 DAA): 73%; pest or weed control at 560 g/ha ([6]; 168 h, 7 DAA): 83%; pest or weed control at 280 g/ha ([6]; 336 h, 14 DAA): 93%; pest or weed control at 560 g/ha ([6]; 336 h, 14 DAA): 93%; pest or weed control at 280 g/ha ([6]; 504 h, 21 DAA): 92%; pest or weed control at 560 g/ha ([6]; 504 h, 21 DAA): 96%; pest or weed control at 280 g/ha ([7]; 168 h, 7 DAA): 65%; pest or weed control at 560 g/ha ([7]; 168 h, 7 DAA): 78%; pest or weed control at 280 g/ha ([7]; 336 h, 14 DAA): 63%; pest or weed control at 560 g/ha ([7]; 336 h, 14 DAA): 85%; pest or weed control at 280 g/ha ([7]; 504 h, 21 DAA): 60%; pest or weed control at 560 g/ha ([7]; 504 h, 21 DAA): 84%
2 | CS/C(C)=N\OC(=O)COc1ccc(Cl)cc1Cl [Compound A10, Methyl N-2-(2,4-dichlorophenoxy)acetoxyethanimidothioate] | 72% | 76% | 83% | 84% | 90% | 84% | 0.6 µg/min | 65% | 70% | 75% | 83% | 83% | 53% | 63% | 68% | 85% | 83% | 93% | 94% | 83% | pest or weed control at 560 g/ha ([5]; 168 h, 7 DAA): 88%; pest or weed control at 280 g/ha ([5]; 336 h, 14 DAA): 90%; pest or weed control at 560 g/ha ([5]; 336 h, 14 DAA): 92%; pest or weed control at 280 g/ha ([5]; 504 h, 21 DAA): 98%; pest or weed control at 560 g/ha ([5]; 504 h, 21 DAA): 94%; pest or weed control at 280 g/ha ([6]; 168 h, 7 DAA): 70%; pest or weed control at 560 g/ha ([6]; 168 h, 7 DAA): 75%; pest or weed control at 280 g/ha ([6]; 336 h, 14 DAA): 85%; pest or weed control at 560 g/ha ([6]; 336 h, 14 DAA): 92%; pest or weed control at 280 g/ha ([6]; 504 h, 21 DAA): 100%; pest or weed control at 560 g/ha ([6]; 504 h, 21 DAA): 96%; pest or weed control at 280 g/ha ([7]; 168 h, 7 DAA): 80%; pest or weed control at 560 g/ha ([7]; 168 h, 7 DAA): 78%; pest or weed control at 280 g/ha ([7]; 336 h, 14 DAA): 80%; pest or weed control at 560 g/ha ([7]; 336 h, 14 DAA): 73%; pest or weed control at 280 g/ha ([7]; 504 h, 21 DAA): 78%; pest or weed control at 560 g/ha ([7]; 504 h, 21 DAA): 83%
